From PubChem BioAssay (NCI)
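A five-concentration, 48-hour dose response in 96-well plates underlies each endpoint, interpolated linearly between surrounding concentrations. GI50 marks 50% less growth. TGI: total growth inhibition.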

Assays:
Assay in all cases: growth of human tumour cells (NCI), 48 h
[1] = test system: HCT-15 colon
[2] = test system: A549 NSCLC
[3] = test system: HOP-62 NSCLC
[4] = test system: RXF 393 renal
[5] = test system: BT-549 breast
[6] = test system: HOP-92 NSCLC
[7] = test system: SF-268 CNS
[8] = test system: ACHN renal
[9] = test system: SK-MEL-2 melanoma
[10] = test system: CCRF-CEM leukemia

Row | Structure (SMILES) | GI50 [1] [µM] | TGI [1] [µM] | GI50 [2] [µM] | TGI [2] [µM] | GI50 [3] [µM] | TGI [3] [µM] | GI50 [4] [µM] | TGI [4] [µM] | GI50 [5] [µM] | TGI [5] [µM] | GI50 [6] [µM] | TGI [6] [µM] | GI50 [7] [µM] | TGI [7] [µM] | GI50 [8] [µM] | TGI [8] [µM] | GI50 [9] [µM] | TGI [9] [µM] | TGI [10] [µM] | GI50 [10] [µM]
1 | CCN(CCCN(C)C)Cc1cc(I)cc(C)c1O | 21.5 | 49.4 | 28.3 | 90 | 17 | 34.4 | 17.1 | 51.1 | 12.7 | 27.9 | 10.8 | 52.3 | 18.7 | 45.7 | 24.9 | 58.6 | 19.4 | 37.4 | – | –
2 | CN1c2ccccc2N(C(=O)c2ccc([N+](=O)[O-])cc2)C(CC(=O)O)c2cccn21 (configuration not stated) | – | > 100 | – | > 100 | – | > 100 | – | > 100 | – | – | – | > 100 | – | > 100 | – | > 100 | – | > 100 | > 100 | –
3 | Cc1cc(NCCCCCCCCNc2cc(C)nc3cc(N)ccc23)c2ccc(N)cc2n1 | – | > 100 | – | > 100 | – | 75.1 | – | > 100 | – | – | – | – | – | > 100 | – | > 100 | – | 40.4 | 30.8 | –
4 | O=C(/C=C/c1cc(Cl)cc(Cl)c1O)c1cccc(O)c1 | – | > 100 | – | > 100 | – | > 100 | – | > 100 | – | – | – | 84.9 | – | > 100 | – | > 100 | – | 61.7 | > 100 | –
5 | CCCCCN(CCCCC)C(=O)[C@@H](CCC(=O)O)NC(=O)c1cc2ccccc2[nH]1 | – | > 100 | – | > 100 | – | 87.7 | – | 25.6 | – | – | – | 67.8 | – | 82.9 | – | > 100 | – | 62.2 | 61 | –
6 | CCCCCCCCCCCCOC1C(CNC(=O)C2OC3OC(C)(C)OC3C2NC(=O)Nc2ccc(CC(=O)OC)cc2)OC2OC(C)(C)OC21 (configuration not stated) | > 100 | > 100 | > 100 | > 100 | > 50.2 | > 100 | – | – | > 100 | > 100 | > 100 | > 100 | > 100 | > 100 | > 100 | > 100 | > 100 | > 100 | > 100 | > 19.6
7 | Cc1cn(C2CC(O)C(COC(=O)c3ccccc3)O2)c(=O)[nH]c1=O (configuration not stated) | – | > 100 | – | > 100 | – | > 100 | – | > 100 | – | – | – | > 100 | – | – | – | > 100 | – | – | > 100 | –
8 | Cc1c(Cl)cccc1NC(=O)C(=O)C(C(=O)c1ccccc1-c1ccccc1)C1OC(=O)c2ccccc21 (configuration not stated) | – | – | – | 66.8 | – | 35.5 | – | 27.1 | – | – | – | 34.4 | – | 61.7 | – | – | – | 32.6 | 96.9 | –
9 | Nc1ncnc2c1ncn2[C@]1(CO)C=C(CO)C(O)C1O (some centres not stated) | – | > 100 | – | > 100 | – | > 100 | – | > 100 | – | – | – | > 100 | – | > 100 | – | > 100 | – | > 100 | – | –
10 | COC(=O)C1CCc2c1c(=O)n1c([nH]c3ccccc31)c2C#N (configuration not stated) | – | > 100 | – | > 100 | – | > 100 | – | > 100 | – | – | – | > 100 | – | > 100 | – | > 100 | – | > 100 | > 100 | –
